Source: article PMC10254444, “Targeting Myeloperoxidase Activity and Neutrophil ROS Production to Modulate Redox Process: Effect of Ellagic Acid and Analogues” (Molecules, 2023)

Experiments:
[1] = ABTS radical cation assay
Description: The ABTS assay was based on the method described by Re et al.. For the generation of ABTS^•+ radicals, sodium persulfate (2.45 mM) aqueous solution was mixed with ABTS (7 mM) and incubated overnight in the dark to obtain a dark-colored solution. Stock solution of ABTS^•+ was then diluted by adding pure methanol (100%) to obtain an absorbance of 0.70 (±0.02) at 734 nm at 30 °C. To obtain more repetition, the ABTS assay was performed using a microplate reader (ThermoLabsystem, Finland). An aliquot of 2 µL of the tested compound (EA or analogue) was added to 198 µL of ABTS^•+, and the decrease in absorbance was monitored at 740 nm after 30 min [32]. During this reaction, the blue-green ABTS radical cation is converted back into its colorless neutral form in the presence of the potential antioxidant molecule. A control consisted of 2 µL of DMSO in 198 µL of ABTS^•+ solution. The reducing capacity was determined according to the formula:% inhibition = (Acontrol − ASample) × 100/AControl(1)

[2] = DPPH radical scavenging assay
Description: The DPPH assay was performed according to the method developed by Brand-Williams et al., though slightly modified. A solution of 1 mM DPPH in absolute methanol was stirred for 40 min. Absorbance of the solution was adjusted to 0.650 ± 0.020 at 517 nm using fresh absolute methanol. For replicates, the DPPH assay was performed using a microplate reader. For this, 2 µL of EA taken as a standard or sample (EA analogue) were mixed with 198 µL of DPPH solution and incubated for 30 min in the dark covered with aluminum foil. When reacting with an antioxidant, the DPPH• radical is converted into DPPH, and its color changes from purple to yellow. The antioxidant effect may be easily evaluated by observing the decrease in visible absorption. The absorbance decrease was monitored at 510 nm for 30 min with a Multiskan Ascent 96-plate reader (ThermoLabsystem, Finland). A control consisted of 2 µL of DMSO in 198 µL of DPPH solution. A similar formula (Equation (1)) was applied to determine the DPPH radical-scavenging activity.

[3] = molecular target: T1, Horseradish peroxidase (HRP) (Armoracia rusticana, UniProt P00433); experiment: HRP-catalyzed oxidation of L012 (chemiluminescence); format: biochemical
T1 construct: purchased Merck (Darmstadt, Germany)
T1 sequence (P00433 31-338 limits assumed): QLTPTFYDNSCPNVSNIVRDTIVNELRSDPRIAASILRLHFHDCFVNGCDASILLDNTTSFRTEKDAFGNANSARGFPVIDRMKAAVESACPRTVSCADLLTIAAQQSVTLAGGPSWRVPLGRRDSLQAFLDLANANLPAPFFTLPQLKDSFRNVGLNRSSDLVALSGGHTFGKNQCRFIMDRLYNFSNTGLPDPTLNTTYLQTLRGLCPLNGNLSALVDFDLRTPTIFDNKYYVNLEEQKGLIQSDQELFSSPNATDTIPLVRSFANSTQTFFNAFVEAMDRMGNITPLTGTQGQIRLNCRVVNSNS
Description: […] (HRP) reacts with hydrogen peroxide (H2O2), yielding “compound I (HRP^+.-Fe (IV=O))”, which is a reactive intermediate of HRP that is able to oxidize any potential reducing agent. Briefly, 2 μL of compound or reference molecule (ellagic acid) were incubated in phosphate buffer at pH 7.4 (153 μL, 50 mM) containing 5 μL HRP (100 µg/L), 20 μL L0-12 (10^−3 M), and 20 μL H2O2 (1 mM), and the chemiluminescence was immediately measured using a Fluoroskan Ascent 96-plate reader (ThermoLabsystem, Finland) at 37 °C for 30 min [32, 34]. The analysis was conducted in a 96-well microtiter plate. All the assays were performed in triplicate and repeated at least twice (N = 2; n = 6). The relative activity in terms of inhibition percentage of the tested compound or reference (ellagic acid) was compared to a control in the presence of DMSO taken as a solvent. The inhibition percentage was calculated using a similar formula (Equation (1)) as described above.

[4] = molecular target: T2, human myeloperoxidase (MPO) (Homo sapiens, UniProt P05164); experiment: MPO activity by SIEFED assay; format: biochemical
T2 construct: purchased Calbiochem Millipore
T2 sequence (P05164 49-745): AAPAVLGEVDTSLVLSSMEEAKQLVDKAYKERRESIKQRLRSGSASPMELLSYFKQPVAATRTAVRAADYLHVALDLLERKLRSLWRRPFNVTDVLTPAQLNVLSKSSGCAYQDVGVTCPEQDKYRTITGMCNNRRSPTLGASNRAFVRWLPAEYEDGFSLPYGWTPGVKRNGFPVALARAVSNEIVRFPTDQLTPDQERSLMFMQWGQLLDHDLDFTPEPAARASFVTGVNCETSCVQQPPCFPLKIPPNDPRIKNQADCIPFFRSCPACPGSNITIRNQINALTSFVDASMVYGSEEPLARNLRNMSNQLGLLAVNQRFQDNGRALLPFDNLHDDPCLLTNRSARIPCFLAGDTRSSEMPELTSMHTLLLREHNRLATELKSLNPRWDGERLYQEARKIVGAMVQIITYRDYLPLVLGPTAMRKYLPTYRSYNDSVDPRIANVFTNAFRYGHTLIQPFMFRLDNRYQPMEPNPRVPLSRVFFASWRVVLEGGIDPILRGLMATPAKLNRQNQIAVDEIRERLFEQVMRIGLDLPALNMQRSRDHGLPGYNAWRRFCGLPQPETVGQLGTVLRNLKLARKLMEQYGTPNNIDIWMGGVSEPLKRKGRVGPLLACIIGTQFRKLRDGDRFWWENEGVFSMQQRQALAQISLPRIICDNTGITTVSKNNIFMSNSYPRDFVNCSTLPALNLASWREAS
Description: (§1) Measurement of the peroxidase activity of MPO was performed by a classical enzymatic assay and by SIEFED assay as described by Nyssen et al.. The MPO solution was prepared with purified human MPO in dilution buffer (PBS 20 mM at pH 7.4 with 5 g/L BSA and 0.1% Tween-20). The solutions of EA or analogue, at final concentrations ranging from 10^−8 M to 10^−5 M, were incubated for 10 min with human MPO at a final concentration of 5 mU/mL before further use. The revelation of MPO activity was performed by monitoring the enzyme-catalyzed oxidation of Amplex Red in the presence of H2O2 (10 μM) and nitrite (4.5 mM) in phosphate buffer at pH 7.4.
Samples with MPO and various concentrations of […] were prepared and incubated as with the classical assay. An amount of 100 μL of each mixture (MPO alone or MPO + EA/DMSO) was then loaded into the wells of a SIEFED microtiter plate coated with rabbit polyclonal antibodies (3 μg/mL) against human MPO and incubated for 2 h at 37 °C in darkness. After washing up the wells, the activity of the enzyme captured by the antibodies was measured by adding 10 μL sodium nitrite solution (4.5 mM, final concentration) and 100 μL of a reactional solution containing 10 μM H2O2 and 40 μM Amplex® in phosphate buffer (50 mM) at pH 7.4. The oxidation of Amplex® Red into the fluorescent adduct resorufin (λexcitation = 544 nm; λemission = 590 nm) was monitored for 30 min at 37 °C with a fluorescent plate reader (Fluoroskan Ascent, Fisher Scientific). As for the MPO direct assay, a control assay set as the relative value of MPO activity was performed with purified MPO in the presence of PBS instead of the samples of EA or analogue dissolved in DMSO. In this SIEFED assay, MPO was bonded by the antibodies into the wells, and EA/analogue was discarded in the washing step before starting the measurement of the enzymatic activity. For both MPO assays, the inhibition percentage was calculated using a similar formula (Equation (1)) as described above.

[5] = molecular target: T2, human myeloperoxidase (MPO); experiment: MPO peroxidase activity, classical assay (Amplex Red); format: biochemical; conditions: concentration range 0.01 to 10 µM
Description: as §1
After incubation, mixtures containing 100 μL of EA/analogue or vehicle (DMSO) and MPO were loaded into wells of microtiter plates (transparent), and the peroxidase activity was measured by adding 10 μL sodium nitrite solution (4.5 mM, final concentration) and 100 μL of the reactional solution containing 10 µM H2O2 and 40 µM Amplex® Red (AR) in phosphate buffer (50 mM) at pH 7.4. The oxidation of AR into the fluorescent resorufin adduct (λexcitation = 544 nm; λemission = 590 nm) was monitored for 30 min at 37 °C with a fluorescent plate reader (Fluoroskan Ascent, Fisher Scientific, Hampton, NH, USA). To eliminate the possibility of the artifact reactions that might arise from MPO activity or its natural substrate (H2O2), the direct reaction of ellagic acid or an analogue with H2O2 was performed in phosphate buffer (PBS) without the addition of human MPO.

[6] = in mice; cited from earlier work
[7] = set-up: method as in PMID 19015354; conditions: after intraperitoneal injection; cited from earlier work
Solubility = format: physicochemical

Compound	IC50 [1] [µM]	IC50 [2] [µM]	HRP inhibiting activity (in words) [3]	IC50 [3] [nM]	MPO activity, SIEFED assay (in words) [4]	MPO inhibition (classical assay) [5] [%]	oral bioavailability [6] [%]	curative activity in vivo (in words) [7]	solubility (in words) (Solubility)
O=C(NCCCNC(=O)c1cc(O)c(O)c(O)c1)c1cc(O)c(O)c(O)c1 [compound 12]	5.86 ± 0.18	3.7 ± 0.45	very good inhibition	3060 ± 70					
O=C(OCCCOC(=O)c1cc(O)c(O)c(O)c1)c1cc(O)c(O)c(O)c1 [compound 2]	5.5 ± 0.16	2.86 ± 0.13		2280 ± 110					
O=C(Nc1ccc(OC(=O)c2cc(O)c(O)c(O)c2)cc1)c1cc(O)c(O)c(O)c1 [compound 7, 4-(3,4,5-trihydroxybenzamido)phenyl 3,4,5-trihydroxybenzoate]	4.68 ± 0.13	3.14 ± 0.72	reduced antioxidant effect	5810 ± 490	superior to ellagic acid	94			
O=C(OCCCOC(=O)c1cc(O)c(O)c(O)c1)c1ccc(O)c(O)c1 [compound 5, 3-((3,4-dihydroxybenzoyl)oxy)propyl 3,4,5-trihydroxybenzoate]	5.48 ± 0.23	4.24 ± 0.36		3730 ± 210					
O=C(NCCCOC(=O)c1cc(O)c(O)c(O)c1)c1cc(O)c(O)c(O)c1 [compound 9, 3-(3,4,5-trihydroxybenzamido) propyl 3,4,5-trihydroxybenzoate]	6.34 ± 0.39	5.82 ± 0.35		1810 ± 180					
O=C(OCCCOC(=O)c1cc(O)c(O)c(O)c1)c1ccccc1 [compound 13, 3-(benzoyloxy)propyl 3,4,5-trihydroxybenzoate]	6 ± 0.31	4.91 ± 0.26		5460 ± 10					
O=C(OCCCOC(=O)c1cc(O)c(O)c(O)c1)c1cc(O)cc(O)c1 [compound 3, 3-((3,5-dihydroxybenzoyl)oxy)propyl 3,4,5-trihydroxybenzoate]	5.52 ± 0.34	5.78 ± 0.13		3190 ± 70		98			
O=C(Nc1cccc(OC(=O)c2cc(O)c(O)c(O)c2)c1)c1cc(O)c(O)c(O)c1 [compound 10, 3-(3,4,5-trihydroxybenzamido)phenyl 3,4,5-trihydroxybenzoate]	6.22 ± 0.16	5.27 ± 0.29		1020 ± 90	superior to ellagic acid				
O=c1oc2c(O)c(O)cc3c(=O)oc4c(O)c(O)cc1c4c23 [1a, 2,3,7,8-Tetrahydroxy [1]benzopyrano [5,4,3-cde][1]benzopyran-5,10-dione, reference compound]	6.01 ± 0.26	5.64 ± 0.47	strong inhibiting activity				< 30	curative activity in vivo	low hydrosolubility
O=C(OCCCCOC(=O)c1cc(O)c(O)c(O)c1)c1cc(O)c(O)c(O)c1 [compound 8]	6.97 ± 0.04	5.96 ± 0.06		1480 ± 1170					
O=C(OCCOC(=O)c1cc(O)c(O)c(O)c1)c1cc(O)c(O)c(O)c1 [compound 4]	5.77 ± 0.01	3.36 ± 0.25		2840					
